Results as given in patent publication US6037351A, “Method of inhibiting hepatitis B virus” (priority 1996, dated 2000).
“Also recorded” adds a separate entry of the source.

Columns and labels:
[1] = test system: mouse hepatitis virus (MHV); conditions: appearance of E2 on the cell surface is delayed; cited from earlier work
[2] = treatment of chronic hepatitis B; clinical tests suspended; cited from earlier work
cells = conditions: cited from earlier work
hepatitis B virus (HBV) [3] = conditions: previously reported; cited from earlier work
hepatitis B virus (HBV) [4] = assay: HBV secretion under tunicamycin; format: cell-based; conditions: found by the present inventors
[5] = test system: N-linked glycosylation of proteins; conditions: cited from earlier work
HBV infection = conditions: patients; cited from earlier work
α-glucosidase II = conditions: N-linked oligosaccharide processing enzyme; cited from earlier work
α-glucosidase I = conditions: N-linked oligosaccharide processing enzyme; cited from earlier work

Compound: CN1C[C@H](O)[C@@H](O)[C@H](O)[C@H]1CO [N-methyl deoxynojirimycin]
- formation of mouse hepatitis virus (in words) [1]: inhibit the formation of mouse hepatitis virus (MHV)

Compound: O=c1[nH]c(=O)n([C@@H]2O[C@H](CO)[C@@H](O)[C@@H]2F)cc1I [fialuridine]
- drug-related liver failure in patients [2]: six of 20 patients

Compound: tunicamycin
- toxicity to cells (in words) (cells): very toxic to cells
- HBV secretion from HBV infected or HBV-producing cells (in words) (hepatitis B virus (HBV) [3]): no significant reduction of HBV secretion; also recorded: normal HBV particle secretion
- secretion of subviral particles (in words) (hepatitis B virus (HBV) [4]; subviral particles): not subviral particles is inhibited
- secretion of HBV virions (in words) (hepatitis B virus (HBV) [4]; virions): inhibited
- N-linked glycosylation of proteins (in words) [5]: complete inhibition

Compound: Alpha interferon
- treatment of HBV infection (in words) (HBV infection): promising results in some patients

Compound: OC[C@H]1NC[C@H](O)[C@@H](O)[C@@H]1O [DNJ, 1,5-Dideoxy-1,5-imino-D-glucitol, reference compound]
- inhibition of α-glucosidase II (in words) (α-glucosidase II): known inhibitors
- inhibition of α-glucosidase I (in words) (α-glucosidase I): known inhibitors
